Reference: ChEMBL document CHEMBL1135153, “Cephalosporin-derived inhibitors of beta-lactamase. Part 4: The C3 substituent” (Bioorg Med Chem Lett, 2002)

Each molecule was assayed against Beta-lactamase (Enterobacter cloacae, UniProt P05364) (assay: Inhibitory activity against Class C beta-lactamase).
Beta-lactamase, sequence (P05364 whole entry): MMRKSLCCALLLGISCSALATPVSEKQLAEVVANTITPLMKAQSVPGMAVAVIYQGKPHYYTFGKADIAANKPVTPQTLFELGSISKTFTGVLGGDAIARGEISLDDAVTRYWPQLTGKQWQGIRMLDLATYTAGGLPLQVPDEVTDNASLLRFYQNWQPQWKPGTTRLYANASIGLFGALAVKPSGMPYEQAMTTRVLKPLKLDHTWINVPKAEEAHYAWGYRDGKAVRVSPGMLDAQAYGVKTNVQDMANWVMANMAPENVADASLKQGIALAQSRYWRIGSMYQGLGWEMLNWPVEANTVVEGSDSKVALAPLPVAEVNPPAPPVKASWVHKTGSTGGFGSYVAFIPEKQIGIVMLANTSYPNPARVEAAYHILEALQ

| SMILES | IC50 [nM] |
| --- | --- |
| O=C(O)C1=CCS(=O)(=O)[C@@H]2/C(=C\c3ccccn3)C(=O)N12 | 116 |
| O=C(/C=C/C1=C(C(=O)O)N2C(=O)/C(=C/c3ccccn3)[C@H]2S(=O)(=O)C1)NCc1ccccc1 | 110 |
| O=C(O)C1=C(S(=O)(=O)c2ccccc2)CS(=O)(=O)[C@@H]2/C(=C\c3ccccn3)C(=O)N12 | 174 |
| O=C(O)C1=C(Cl)CS(=O)(=O)[C@@H]2/C(=C\c3ccccn3)C(=O)N12 | 3 |
| CSC1=C(C(=O)O)N2C(=O)/C(=C/c3ccccn3)[C@H]2S(=O)(=O)C1 | 59 |
| CS(=O)(=O)C1=C(C(=O)O)N2C(=O)/C(=C/c3ccccn3)[C@H]2S(=O)(=O)C1 | 90.7 |
| CN1CCN(C(=O)/C=C/C2=C(C(=O)O)N3C(=O)/C(=C/c4ccccn4)[C@H]3S(=O)(=O)C2)CC1 | 6340 |
| O=C(O)C1=C(Sc2ccccc2)CS(=O)(=O)[C@@H]2/C(=C\c3ccccn3)C(=O)N12 | 21.7 |
| NCCCNC(=O)/C=C/C1=C(C(=O)O)N2C(=O)/C(=C/c3ccccn3)[C@H]2S(=O)(=O)C1 | 4200 |
| O=C(/C=C/C1=C(C(=O)O)N2C(=O)/C(=C/c3ccccn3)[C@H]2S(=O)(=O)C1)Nc1ccc(O)cc1 | 35 |
| O=C(O)CNC(=O)/C=C/C1=C(C(=O)O)N2C(=O)/C(=C/c3ccccn3)[C@H]2S(=O)(=O)C1 | 310 |
| N=C(N)NCCNC(=O)/C=C/C1=C(C(=O)O)N2C(=O)/C(=C/c3ccccn3)[C@H]2S(=O)(=O)C1 | 5.5 |
| O=C(O)C1=C(Br)CS(=O)(=O)[C@@H]2/C(=C\c3ccccn3)C(=O)N12 | 2.9 |
| O=C(O)C1=C(F)CS(=O)(=O)[C@@H]2/C(=C\c3ccccn3)C(=O)N12 | 11 |
| O=C(/C=C/C1=C(C(=O)O)N2C(=O)/C(=C/c3ccccn3)[C@H]2S(=O)(=O)C1)NCCO | 212 |

Further molecules by falling IC50, results first:

| IC50 [nM] | SMILES |
| --- | --- |
| 1180 | O=C(/C=C/C1=C(C(=O)O)N2C(=O)/C(=C/c3ccccn3)[C@H]2S(=O)(=O)C1)NCC(F)(F)F |
| 1100 | NNC(=O)/C=C/C1=C(C(=O)O)N2C(=O)/C(=C/c3ccccn3)[C@H]2S(=O)(=O)C1 |
| 824 | O=C(/C=C/C1=C(C(=O)O)N2C(=O)/C(=C/c3ccccn3)[C@H]2S(=O)(=O)C1)NC1CC1 |
| 128 | O=C(/C=C/C1=C(C(=O)O)N2C(=O)/C(=C/c3ccccn3)[C@H]2S(=O)(=O)C1)NO |
| 127 | O=C(/C=C/C1=C(C(=O)O)N2C(=O)/C(=C/c3ccccn3)[C@H]2S(=O)(=O)C1)Nc1c(F)c(F)c(F)c(F)c1F |
| 40.3 | O=C(O)C1=C(c2cccs2)CS(=O)(=O)[C@@H]2/C(=C\c3ccccn3)C(=O)N12 |
| 38 | O=C(O)C1=C(c2ccccc2)CS(=O)(=O)[C@@H]2/C(=C\c3ccccn3)C(=O)N12 |
| 32 | O=C(O)C1=C(C(=O)O)N2C(=O)/C(=C/c3ccccn3)[C@H]2S(=O)(=O)C1 |
| 22 | NC(=O)/C=C/C1=C(C(=O)O)N2C(=O)/C(=C/c3ccccn3)[C@H]2S(=O)(=O)C1 |
| 4.7 | O=C(O)C1=C(I)CS(=O)(=O)[C@@H]2/C(=C\c3ccccn3)C(=O)N12 |
